From patent EP2605769B1, “BENZOQUINONE DERIVATIVES FOR THE TREATMENT OF MITCHONDRIAL EYE DISEASES” (Santhera Pharmaceuticals (Schweiz) AG, priority 2010, dated 2012) come the findings set out here.

Data set [1] deals with Primary human fibroblasts C4 (GM04545, Coriell). Briefly: Lipid peroxidation assay (BODIPY 581/591-C11). In kind it is cell-based. To be noted: 10 µM test compound, 72 hours. An excerpt:
Lipid peroxidation is a well defined mechanism of cellular damage in both animals and plants that occurs during aging and in some disease states. This process proceeds by a free radical chain reaction mechanism. […] If not terminated fast enough, lipid peroxidation damages cellular membranes, affect membrane fluidity and also mitochondrial function. In addition, end products of lipid peroxidation may be mutagenic and carcinogenic. For instance, the reactive end product of lipid peroxidation, malondialdehyde, directly causes DNA damage. Experimental Procedure: […] BODIPY 581/591-C11 can be used to measure antioxidant activity in lipid environments by exploiting its loss of fluorescence upon interaction with peroxyl radicals. […] After that, 0.1 ml freshly prepared dye solution (HBSS, containing BODIPY dye 1:1000 from stock solution) was added and cells were returned to the incubator for 30 min. After 2 brief washes with 0.1 ml warmed PBS fluorescence was measured in 50 µl PBS. Fluorescence for 4 individual areas per well were individually quantified at two wavelengths (Ex1: 490, Em1: 600; Ex2: 490, Em2: 530, bandwith 10nm, 50 flashes, 400Hz frequency, 20 µs integration time).

Data set [2] relates to Complex II-III. Description: Measurement of mitochondrial complex II activity (SURFE2R CII-CIII assay). In kind it is biochemical. To be noted: test compound ~4 µM, peak current normalized. An excerpt: Complex II (CII) is an enzyme complex bound to the matrix face of the inner mitochondrial membranes. It consists of four subunits with several different enzymatic activities. One of these is the citric acid-cycle enzyme succinate dehydrogenase, which catalyzes the conversion from succinate to fumarate. In this reaction electrons are transferred from succinate to the prosthetic group FAD thus generating FADH2 ([…] 2000). These electrons are then transferred from the reduced FADH2 to ubiquinone, from ubiquinone to the reaction centers of complex III (CIII), and finally to the cytochrome c. During this electron translocation process, complex III pumps four protons from matrix to the intermembrane space. These proton fluxes can be detected as electrical currents on SSM-based SURFE2R sensors (http://www.sd-heidelberg.de/index.html). In the SURFE2R CII-CIII assay, both, CII and CIII are activated simultaneously by first equilibrating the sensors with succinate and then activating the CII-CIII reaction by oxidized cytochrome c. The resulting efflux of protons out from the membrane compartment induces negative currents, which are sensitive to the CII and CIII inhibitors malonate and antimycin A, respectively. Experimental Procedure: SURFE2R SSM sensors were coated with inner mitochondrial membranes according to the standard protocols. Briefly, sensors were filled with 50 μL of SensorPrep A solution and incubated for 10-15 min. […] The biosensors were thawed immediately before the experiment and measured with the SURFE2R Workstation 50 or 500 devices. […] For the activity of CII-III, the peak current (current amplitude) was evaluated. […] Afterwards, a test compound (~4 μM) was supplied to the non-activating and the activating solutions and the CII-III activity was recorded for further ~50 min (110 min in total). […] For those test compounds, which activated CII-III by more than 30% at time 80 to 110 min, the CII-CIII activity was recorded for additional ~50 min (up to 160 min in total).

Data set [3] has as its system HepG2 hepatoblastoma cell line. Description: Cytotoxicity assay (WST-1). Format: cell-based, human. The note with it: Hep-G2 cells, 24 hours exposure. An excerpt:
This assay investigates cytotoxicity which is defined as the cell-killing property of a chemical compound, independent from the mechanisms of cell death. The HepG2 hepatoblastoma cell line is one of the most common human cell lines for hepatotoxicity studies. […] This assay measures metabolic activity of living cells using the WST-1 cell proliferation reagent (Roche Diagnostics). The tetrazolium salt WST-1 is cleaved to water soluble formazan by cellular enzymes. An expansion in the number of viable cells results in an increase in the overall activity of mitochondrial dehydrogenases in the sample. This augmentation in enzyme activity leads to an increase in the amount of formazan dye formed, which directly correlates to the number of metabolically active cells in the culture. The formazan dye produced by metabolically active cells is directly quantified in a scanning multiwell spectrophotometer by measuring the absorbance of the formazan dye solution between 420 and 480 nm. Healthy HepG2 cells, when maintained in culture, continuously divide and multiply over time. A toxic chemical, regardless of site and mechanism of action, will interfere with this process and result in the reduction of the growth rate reflected in the cell number.
Experimental Procedure: Hep-G2 cells are seeded into a 96-well microplate and maintained in culture for 24 hours. They are then exposed to the test compound over a range of eight concentrations. After 24 hours exposure, the cells are incubated in presence of reagent WST-1 for 30 min before measuring the absorbance of the formazan dye formed. Cytotoxicity is expressed as a concentration dependent reduction of the conversion formazan dye formation due to a decrease in cell proliferation as compared to untreated cells. The TC50 (Toxic Concentration 50%), is defined as the concentration of tested compound required to reduce the cellular viability by 50% relative to the control culture. The lower the TC50 value, the higher is the cytotoxic potential of the test compound. […]
A general note: Tetrazolium dyes change colour on reduction, which living cells bring about.

In the case of `COC1=C(OC)C(=O)C(CCCCCCCCCC(C)(C)O)=C(C)C1=O` [Compound IC], the Lipid peroxidation in data set [1] is 92%. Further, the “Complex II-III activity” value in data set [2] stood at 97%.

Turning to `COC1=C(OC)C(=O)C(CCCCCCCCCCO)=C(C)C1=O` [Compound IA, Idebenone], the Lipid peroxidation in data set [1] is given as 98%. The compound further returned a TC50 in data set [3] of 100 µM. Moreover, the “Complex II-III activity” value in data set [2] amounted to 102%.

As to `CCCCCCCCCCCC1=C(O)C(=O)C=C(O)C1=O` [Compound IE, Embelin], in data set [1], the Lipid peroxidation is given as 110%. In data set [3], this compound came in with a TC50 of 100 µM. Further, the “Complex II-III activity” value in data set [2] was 110%.
